One assay deals with serotonin. Particulars: six consecutive doses, cited from earlier work.
The next assay deals with EL4 cells. Put plainly: Injection of EL4 cells pre-treated with LP-533401 or serotonin into syngeneic mice (Example 13). It counts as in vivo. The settings on record: cells treated before injection; LP-533401 0.1 to 1-fold serum concentration, serotonin 25 to 100 μM. Here is the method:
(§1) EL4 cells and WEH-3B cells, as described in Example 2, were treated with either LP-533401 or serotonin LP-533401 treatments were performed at 0.1 to 1-fold the amount equivalent to the LP-533401 serum concentration in mice treated with this compound. Serotonin was given at concentrations ranging from 25 to 100 μM, doses at which it affects the proliferation of cells expressing serotonin receptors (Kode et al. (2012); Yadav et al. (2008) Serafeim et al. (2003)).
EL4 cells treated with LP-533401 or serotonin were then injected into syngeneic mice as described in Example 2 to monitor leukemia engraftment, as commonly described for evaluating potential direct effects of compounds on leukemia cells (Moellering et al. (2009)).

Assay [1] deals with myeloid or the lymphoblastic leukemia cells. Put plainly: Serotonin treatment of leukemia cells, proliferation or survival. It counts as cell-based. Here is the method: as §1

Entries after “also recorded” stand apart in the source; their conditions may differ. Read-outs that look alike come from different tables or passages of the source.

`CCOC(=O)[C@@H](N)Cc1ccc(-c2cc(OC(c3ccc(-c4cccc(F)c4)cc3)C(F)(F)F)nc(N)n2)cc1` (some centres unmarked) [LP-615819]: the “serotonin levels in the small intestine lowered” value in the assay with serotonin (30 mg/kg twice per day) is 55%; in the assay with serotonin (90 mg/kg twice per day), 70%. Also, the brain-derived serotonin result with serotonin (30 or 90 mg/kg twice per day) is listed as “unchanged”.

On to `NCCc1c[nH]c2ccc(O)cc12` [serotonin, 5-hydroxytryptamine], for which, in the assay on EL4 cells, the “leukemia outcome (burden and lethality) after injection of pre-treated EL4 cells” value is “neither implantation of serotonin-treated leukemia cells affected leukemia progression; also recorded: neither of the two treatments altered leukemia outcome”. Also, the “proliferation or survival of leukemia cells” value in assay [1] is listed as “no effect”.

Source of the values: patent US9717727B2, “Methods of treating and preventing leukemia and other cancers of the blood and bone” (The Trustees of Columbia University in the City of New York, priority 2011, dated 2017).
